Values after ≈ are worked out from the molar mass of the structure shown. Where two headings read alike, the source gives them in different places.
Assays:
Assay type in all cases: physicochemical
[1] = 24 hrs solubility in H2O at RT (HPLC of supernatant, XRPD of residual solids)
Method: The solubility at 24 hrs of Forms A, C, and D was measured in water at RT. Form A, Form C, and Form D samples were suspended into H2O with dose concentration of 10 mg/mL. After slurrying the suspensions at RT for 24 hrs (1000 rpm), the supernatants were separated for HPLC solubility measurement and the residual solids were characterized by XRPD.

[2] = Dynamic vapor sorption (DVS) hygroscopicity test; details: for water uptake: at 80% RH at 25° C., DVS
Method: To investigate the solid form stability as a function of humidity, Dynamic Vapor Sorption (DVS) isotherm plots of Form A, Form C, and Form D were collected at 25° C. between 0 and 95% relative humidity (RH) by the procedures of Example 8. […] DVS was measured via a SMS (Surface Measurement Systems) DVS Intrinsic. The relative humidity at 25° C. were calibrated against deliquescence points of LiCl, Mg(NO3)2 and KCl. [table]

[3] = Slurry competition experiments (thermodynamic stability of anhydrate forms); details: for thermodynamic stability, Form C versus Form D: slurry competition
Method: Slurry competition experiments were performed to investigate the inter-conversion relationship between three anhydrates (Form A, C, and D). […] Slurry competition was first performed between Form A and C at RT and 50° C. Form C was obtained after slurrying for 40 hrs at RT or 2 hrs at 50° C. […] Therefore, slurry competition was further performed between Form C and D in various solvent systems. The solvent effect of H2O was discovered to be associated with the inter-conversion relationship between Form C and D, with form D forming under anhydrous conditions.
To understand the thermodynamic stability relationship between Form A and Form C, slurry competition experiments were performed at RT and 50° C. in different solvent systems, including acetone/n-heptane, methyl tert-butylether (MTBE)/heptane, and water. Form A was used to saturate the corresponding solvent before filtered to obtain a near-saturated solution. Equal amount of Form A and C samples were weighed and then mixed with the prepared near-saturated solution to form a new suspension, which was stirred magnetically (˜1000 rpm) at RT and 50° C. The XRPD patterns of remaining solids after slurry were measured. […] Form D was obtained via slurrying Form A in MTBE/n-heptane (1:4, v/v) at RT for 1 day, with the addition of Form D sample as seeds.
To further understand the thermodynamic stability relationship between Form C and Form D, slurry competition experiments were performed at RT and 70° C. in various solvent systems, including methyl tert-butylether/heptane, water, cyclohexane, and ethanol/isooctane. Equal amount of Form C and D samples were weighed and then mixed with the near-saturated solution of Form A in corresponding solvent to form a suspension, which was stirred magnetically (˜1000 rpm) at different temperatures. The XRPD patterns of remaining solids after slurry were measured. […] Water content in process solvents were monitored and controlled during the manufacturing of Form C or D samples. […] Water activity (or relative humidity) was monitored and controlled during the manufacture and storage of Form C or D samples.

[4] = Approximate solubility in solvents, used to choose slurry solvent systems
[5] = 24 hrs slurry at 10 mg/mL dose concentration, HPLC

CNc1nc(Nc2cn(C(C)(C)C#N)nc2C)ncc1C(F)(F)F [Form A, 2-methyl-2-(3-methyl-4-(4-(methylamino)-5-(trifluoromethyl)pyrimidin-2-ylamino)-1H-pyrazol-1-yl)propanenitrile]
form change after 24 hrs solubility evaluation (XRPD of residual solids) [1]: No form change | solubility at 24 h ([1]; water, thermodynamic from solid, 24 hrs slurry at 10 mg/mL dose concentration, HPLC): 180 µg/mL (≈ 530 µM) | water uptake [2]: 0.04%

CNc1nc(Nc2cn(C(C)(C)C#N)nc2C)ncc1C(F)(F)F [Form C, 2-methyl-2-(3-methyl-4-(4-(methylamino)-5-(trifluoromethyl)pyrimidin-2-ylamino)-1H-pyrazol-1-yl)propanenitrile]
form change after 24 hrs solubility evaluation (XRPD of residual solids) [1]: No form change | 24 Hrs Solubility in H2O at RT [1, 5]: 140 µg/mL | Hygroscopicity ([2]; DVS at 25° C., 0 to 95% RH): slightly hygroscopic | water uptake [2]: 0.6% | thermodynamic stability, Form A versus Form C ([3]; slurry competition of equal amounts of Form A and C, RT and 50° C., various solvents): thermodynamically more stable than Form A | thermodynamic stability, Form C versus Form D ([3]; water activity aw≥0.5 at RT): more stable

CNc1nc(Nc2cn(C(C)(C)C#N)nc2C)ncc1C(F)(F)F [Form D, 2-methyl-2-(3-methyl-4-(4-(methylamino)-5-(trifluoromethyl)pyrimidin-2-ylamino)-1H-pyrazol-1-yl)propanenitrile]
form change after 24 hrs solubility evaluation (XRPD of residual solids) [1]: No form change | 24 Hrs Solubility in H2O at RT [1, 5]: 110 µg/mL | water uptake [2]: 0.05% | thermodynamic stability, Form C versus Form D ([3]; water activity aw≤0.2 at RT): thermodynamically more stable

CNc1nc(Nc2cn(C(C)(C)C#N)nc2C)ncc1C(F)(F)F [Formula I compound, 2-methyl-2-(3-methyl-4-(4-(methylamino)-5-(trifluoromethyl)pyrimidin-2-ylamino)-1H-pyrazol-1-yl)propanenitrile]
solubility ([4]; H2O and non-polar solvents (e.g., n-heptane, cyclohexane), water, read-out: solubility in H2O and non-polar solvents): < 2000 µg/mL | solubility ([4]; organic solvent or mixture, solvents other than H2O and non-polar solvents, read-out: solubility in other solvents): > 40000 µg/mL
